Test results as given in patent US9233979B2, “Compounds that are ERK inhibitors” (Merck Sharp & Dohme Corp., priority 2012, dated 2016).
pIC50: −log10 of the molar value.

Biological target: phosphorylated active hERK2 enzyme (Homo sapiens (Human), UniProt P28482)
Assay: Active Human ERK2 (hERK2) Activity Assay (IMAP-FP)
Assay type: biochemical
Conditions: Table 6, 0.5 nM hERK2, 30 μM ATP, 10 point titration, read-out: AERK2 IC50
Outline: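 IMAP fluorescence-polarization kinase assay: 0.5 nM activated hERK2 with 900 nM unlabeled plus 80 nM labeled peptide and 30 μM ATP, reacted 60 min. Quenched with IMAP beads in binding buffer with 24 mM NaCl; FP read after 60 min equilibration.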

Sequence of phosphorylated active hERK2 enzyme (P28482 whole entry): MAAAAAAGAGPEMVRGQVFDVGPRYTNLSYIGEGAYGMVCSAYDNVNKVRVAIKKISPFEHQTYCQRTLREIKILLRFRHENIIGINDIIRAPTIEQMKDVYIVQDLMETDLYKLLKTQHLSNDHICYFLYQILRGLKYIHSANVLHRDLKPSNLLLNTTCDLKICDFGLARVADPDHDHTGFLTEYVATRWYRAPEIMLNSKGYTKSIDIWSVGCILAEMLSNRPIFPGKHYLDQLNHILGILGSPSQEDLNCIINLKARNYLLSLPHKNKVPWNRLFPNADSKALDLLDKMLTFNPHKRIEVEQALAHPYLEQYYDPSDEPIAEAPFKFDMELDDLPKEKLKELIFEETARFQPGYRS

Structure (SMILES) | pIC50
C[C@@H](NC(=O)Nc1cc2[nH]nc(NC(=O)Oc3ccccc3)c2cn1)c1ccccc1 [Example 222, phenyl[6-({[(1R)-1-phenylethyl]-carbamoyl}amino)-1H-pyrazolo[4,3-c]pyridin-3-yl]-carbamate] | 8.44
CCNc1n[nH]c2cc(NC(=O)NCc3c(C)cccc3Cl)ncc12 [Example 227, 1-(2-chloro-6-methylbenzyl)-3-[3-(ethylamino)-1H-pyrazolo[4,3-c]pyridin-6-yl]urea] | 7.95
CCNc1n[nH]c2cc(NC(=O)N[C@H](C)C3CCCCC3)ncc12 [Example 230, 1-[(1R)-1-cyclohexylethyl]-3-[3-(ethylamino)-1H-pyrazolo[4,3-c]pyridin-6-yl]urea] | 7.93
CCNc1n[nH]c2cc(NC(=O)NC3CNc4ccccc4C3)ncc12 (stereo not shown) [Example 232, 1-[3-(ethylamino)-1H-pyrazolo[4,3-c]pyridin-6-yl]-3-(1,2,3,4-tetrahydro-quinolin-3-yl)urea] | 7.73
CCNc1n[nH]c2cc(NC(=O)N[C@@H]3CCOc4ccccc43)ncc12 [Example 234, 1-[(4R)-3,4-dihydro-2H-chromen-4-yl]-3-[3-(ethylamino)-1H-pyrazolo[4,3-c]pyridin-6-yl]urea] | 7.28
CCNc1n[nH]c2cc(NC(=O)NC3COc4ccccc43)ncc12 (stereo not shown) [Example 235, 1-(2,3-dihydro-1-benzofuran-3-yl)-3-[3-(ethylamino)-1H-pyrazolo[4,3-c]pyridin-6-yl]urea] | 6.48
CCNc1n[nH]c2cc(NC(=O)NC3CCCC3c3ccccc3)ncc12 (stereo not shown) [Example 237, 1-[3-(ethylamino)-1H-pyrazolo[4,3-c]pyridin-6-yl]-3-(2-phenyl-cyclopentyl)urea] | 8.08
CCNc1n[nH]c2cc(NC(=O)NCc3cccnc3OCC)ncc12 [Example 238, 1-[(2-ethoxy-pyridin-3-yl)-methyl]-3-[3-(ethylamino)-1H-pyrazolo[4,3-c]pyridin-6-yl]urea] | 8.02
CCNc1n[nH]c2cc(NC(=O)N[C@@H](CN(C)C)c3ccccc3)ncc12 [Example 239, 1-[(1R)-2-(dimethylamino)-1-phenylethyl]-3-[3-(ethylamino)-1H-pyrazolo[4,3-c]pyridin-6-yl]urea] | 7.56
CCNc1n[nH]c2cc(NC(=O)NCc3cccc(F)c3)ncc12 [Example 241, 1-[3-(ethylamino)-1H-pyrazolo[4,3-c]pyridin-6-yl]-3-(3-fluorobenzyl)-urea] | 7.93
CCNc1n[nH]c2cc(NC(=O)NCc3c(F)cccc3OC)ncc12 [Example 242, 1-[3-(ethylamino)-1H-pyrazolo[4,3-c]pyridin-6-yl]-3-(2-fluoro-6-methoxybenzyl)-urea] | 8.62
CCNc1n[nH]c2cc(NC(=O)N[C@H](C)c3cccc(F)c3)ncc12 [Example 243, 1-[3-(ethylamino)-1H-pyrazolo[4,3-c]pyridin-6-yl]-3-[(1R)-1-(3-fluorophenyl)-ethyl]urea] | 8.77
CCNc1n[nH]c2cc(NC(=O)N[C@H](C)c3cccc(Cl)c3)ncc12 [Example 246, 1-[(1R)-1-(3-chlorophenyl)ethyl]-3-[3-(ethylamino)-1H-pyrazolo[4,3-c]pyridin-6-yl]urea] | 8.62
CCNc1n[nH]c2cc(NC(=O)N[C@H](C)c3ccc(Cl)cc3)ncc12 [Example 249, 1-[(1R)-1-(4-chlorophenyl)ethyl]-3-[3-(ethylamino)-1H-pyrazolo[4,3-c]pyridin-6-yl]urea] | 7.92
CCNc1n[nH]c2cc(NC(=O)NC(C)c3ccc(F)c(F)c3)ncc12 (stereo not shown) [Example 251, 1-[1-(3,4-difluoro-phenyl)ethyl]-3-[3-(ethylamino)-1H-pyrazolo[4,3-c]-pyridin-6-yl]urea] | 8.49
CC(CNC(=O)Nc1cc2[nH]nc(N)c2cn1)c1ccccc1 (stereo not shown) [Example 254, 1-(3-amino-1H-pyrazolo[4,3-c]pyridin-6-yl)-3-(2-phenyl-propyl)urea] | 7.24
Nc1n[nH]c2cc(NC(=O)NC3CCCC3c3ccccc3)ncc12 (stereo not shown) [Example 261, 1-(3-amino-1H-pyrazolo[4,3-c]-pyridin-6-yl)-3-(2-phenylcyclopentyl)urea] | 8.22
CCOc1ncccc1CNC(=O)Nc1cc2[nH]nc(N)c2cn1 [Example 262, 1-(3-amino-1H-pyrazolo[4,3-c]pyridin-6-yl)-3-[(2-ethoxypyridin-3-yl)methyl]urea] | 7.68

Further compounds by rising pIC50, results first:

pIC50 | Structure (SMILES)
6.45 | C[C@@H](NC(=O)Nc1cc2[nH]nc(NC(=O)OCC(C)(C)C)c2cn1)c1ccccc1 [Example 224, 2,2-dimethylpropyl [6-({[(1R)-1-phenylethyl]-carbamoyl}amino)-1H-pyrazolo[4,3-c]pyridin-3-yl]-carbamate]
6.49 | Nc1n[nH]c2cc(NC(=O)NC3COc4ccccc43)ncc12 (stereo not shown) [Example 259, 1-(3-amino-1H-pyrazolo[4,3-c]pyridin-6-yl)-3-(2,3-dihydro-1-benzofuran-3-yl)-urea]
6.99 | Nc1n[nH]c2cc(NC(=O)N[C@@H]3CCOc4ccccc43)ncc12 [Example 258, 1-(3-amino-1H-pyrazolo[4,3-c]pyridin-6-yl)-3-[(4R)-3,4-dihydro-2H-chromen-4-yl]-urea]
7.24 | CCNc1n[nH]c2cc(NC(=O)NCc3cnsn3)ncc12 [Example 231, 1-[3-(ethylamino)-1H-pyrazolo[4,3-c]pyridin-6-yl]-3-(1,2,5-thiadiazol-3-ylmethyl)urea]
7.40 | C[C@@H](NC(=O)Nc1cc2[nH]nc(NC(=O)OCc3ccccc3)c2cn1)c1ccccc1 [Example 225, benzyl [6-({[(1R)-1-phenylethyl]-carbamoyl}amino)-1H-pyrazolo[4,3-c]pyridin-3-yl]-carbamate]
7.43 | Nc1n[nH]c2cc(NC(=O)NC3CNc4ccccc4C3)ncc12 (stereo not shown) [Example 256, 1-(3-amino-1H-pyrazolo[4,3-c]pyridin-6-yl)-3-(1,2,3,4-tetrahydro-quinolin-3-yl)urea]
7.43 | Nc1n[nH]c2cc(NC(=O)NC3COc4ccccc4C3)ncc12 (stereo not shown) [Example 257, 1-(3-amino-1H-pyrazolo[4,3-c]pyridin-6-yl)-3-(3,4-dihydro-2H-chromen-3-yl)urea]
7.49 | CCNc1n[nH]c2cc(NC(=O)NCc3cccnc3N(C)C)ncc12 [Example 250, 1-{[2-(dimethyl-amino)pyridin-3-yl]methyl}-3-[3-(ethylamino)-1H-pyrazolo[4,3-c]-pyridin-6-yl]urea]
7.55 | CCNc1n[nH]c2cc(NC(=O)NC3COc4ccccc4C3)ncc12 (stereo not shown) [Example 233, 1-(3,4-dihydro-2H-chromen-3-yl)-3-[3-(ethylamino)-1H-pyrazolo[4,3-c]pyridin-6-yl]urea]
7.74 | C[C@@H](NC(=O)Nc1cc2[nH]nc(N)c2cn1)C1CCCCC1 [Example 255, 1-(3-amino-1H-pyrazolo[4,3-c]pyridin-6-yl)-3-[(1R)-1-cyclohexyl-ethyl]urea]
7.77 | CCNc1n[nH]c2cc(NC(=O)NCC(C)c3ccccc3)ncc12 (stereo not shown) [Example 226, 1-[3-(ethylamino)-1H-pyrazolo[4,3-c]pyridin-6-yl]-3-(2-phenylpropyl)-urea]
7.83 | CCNc1n[nH]c2cc(NC(=O)NCc3ccc(F)c(Cl)c3)ncc12 [Example 240, 1-(3-chloro-4-fluorobenzyl)-3-[3-(ethylamino)-1H-pyrazolo[4,3-c]-pyridin-6-yl]urea]
7.91 | CC(C)OC(=O)Nc1n[nH]c2cc(NC(=O)N[C@H](C)c3ccccc3)ncc12 [Example 223, 1-methylethyl[6-({[(1R)-1-phenylethyl]-carbamoyl}amino)-1H-pyrazolo[4,3-c]pyridin-3-yl]-carbamate]
7.97 | CCNc1n[nH]c2cc(NC(=O)NCc3c(F)cccc3Cl)ncc12 [Example 244, 1-(2-chloro-6-fluorobenzyl)-3-[3-(ethylamino)-1H-pyrazolo[4,3-c]-pyridin-6-yl]urea]
8.17 | CCNc1n[nH]c2cc(NC(=O)N[C@H](C)c3ccc(F)c(Cl)c3)ncc12 [Example 245, 1-[(1R)-1-(3-chloro-4-fluorophenyl)ethyl]-3-[3-(ethylamino)-1H-pyrazolo[4,3-c]pyridin-6-yl]urea]
8.46 | CCNc1n[nH]c2cc(NC(=O)NCc3ccccc3OC(F)F)ncc12 [Example 228, 1-[2-(difluoro-methoxy)benzyl]-3-[3-(ethylamino)-1H-pyrazolo[4,3-c]pyridin-6-yl]urea]
8.49 | CCNc1n[nH]c2cc(NC(=O)N[C@H](C)c3ccc(Cl)c(Cl)c3)ncc12 [Example 248, 1-[(1R)-1-(3,4-dichlorophenyl)ethyl]-3-[3-(ethyl-amino)-1H-pyrazolo[4,3-c]-pyridin-6-yl]urea]
8.66 | CCNc1n[nH]c2cc(NC(=O)N[C@H](CC)c3ccc(Cl)cc3)ncc12 [Example 247, 1-[(1R)-1-(4-chlorophenyl)propyl]-3-[3-(ethylamino)-1H-pyrazolo[4,3-c]-pyridin-6-yl]urea]
8.70 | CCNc1n[nH]c2cc(NC(=O)N[C@H](C)c3ccc(Cl)c(C)c3)ncc12 [Example 252, 1-[(1R)-1-(4-chloro-3-methyl-phenyl)ethyl]-3-[3-(ethylamino)-1H-pyrazolo[4,3-c]-pyridin-6-yl]urea]
9.00 | CCNc1n[nH]c2cc(NC(=O)N[C@@H]3CN(C)C[C@H]3c3ccccc3)ncc12 [Example 253, 1-[3-(ethylamino)-1H-pyrazolo[4,3-c]pyridin-6-yl]-3-[(3S,4R)-1-methyl-4-phenylpyrrolidin-3-yl]urea]
9.15 | CCNc1n[nH]c2cc(NC(=O)N[C@@H](c3ccccc3)C3(O)CCCC3)ncc12 [Example 236, 1-[3-(ethylamino)-1H-pyrazolo[4,3-c]pyridin-6-yl]-3-[(S)-(1-hydroxy-cyclopentyl)-(phenyl)methyl]-urea]
9.40 | Nc1n[nH]c2cc(NC(=O)N[C@@H](c3ccccc3)C3(O)CCCC3)ncc12 [Example 260, 1-(3-amino-1H-pyrazolo[4,3-c]-pyridin-6-yl)-3-[(S)-(1-hydroxy-cyclopentyl)-(phenyl)methyl]-urea]
